Results reported in paper PMC3689638, “Cell cycle-dependent activity of the novel dual PI3K-MTORC1/2 inhibitor NVP-BGT226 in acute leukemia” (Molecular Cancer, 2013).
Like-named read-outs stand apart in the source and are kept apart here.

How the values were obtained:
MOLM14 cells (FLT3 ITD) = experiment: annexin V-based apoptosis assay, MOLM14; type: cell-based; details: Homo sapiens, MOLM-14, read-out: IC50 induction of apoptosis
Procedure: (§1) Translocation of phosphatidylserine from the inner to the outer leaflet of the plasma membrane as an early indicator of apoptosis was analyzed using an Annexin V-based assay (Immunotech, Marseilles, France) and a FACScalibur® flow cytometer loaded with CellQuest® analysis software (BD, Heidelberg, Germany).

MOLM14 cells = experiment: cell cycle analysis by PI-stain flow cytometry, MOLM14; type: cell-based, human; details: 500 nM, 72h
Procedure: (§2) Accumulation of cells in the G1/G0, S or G2/M phases was monitored 6, 24 and 72 hours after application of either agent.
(§3) A propidium iodide-based flow cytometry assay was assessed as described previously. In short, a propidium iodide stain assay is used to segregate cells according to the DNA content, which is graphically shown in a histogram plot (high content in G2/M, intermediate content in S-phase, low content in G1/G0 and lowest content in dead/apoptotic cells, which defines a sub-G1/G0 fraction),

K562 cells = experiment: cell cycle analysis by PI-stain flow cytometry, K562; type: cell-based, human; details: 500 nM, 72h
Procedure: as §2, §3

Ba/F3 FLT3 S451F = experiment: Induction of apoptosis, isogenic Ba/F3 model; type: cell-based, murine
Procedure: (§4) FLT3 S451F cDNA cloned into a pCMVneo plasmid vector [53] was generously provided by Dr. Fröhling, University of Ulm, Germany. KIT wildtype cDNA cloned into a pJP1563 plasmid vector was obtained from the DNASU Plasmid Repository at the Biodesign Institute of the Arizona State University (ASU). Lipofection transfection into the parental Ba/F3 cell line was performed to stably express KIT wildtype or mutant FLT3 S451F by double selection for neomycin (pCMVneo plasmid), blasticidin (pJP1563 plasmid) or […] (G418; all other plasmids) resistance and IL-3-independent growth. The Ba/F3 KIT wildtype cell line was cultured using recombinant human stem cell factor (SCF/KIT Ligand, R&D, Minneapolis, MN) as a growth supplement.
as §1

Ba/F3 KIT WT = experiment: Induction of apoptosis, isogenic Ba/F3 model; type: cell-based, murine
Procedure: as §4, §1

Ba/F3 BCR/ABL1 = experiment: Induction of apoptosis, isogenic Ba/F3 model; type: cell-based, murine
Procedure: as §1

Ba/F3 FLT3 D835Y = experiment: Induction of apoptosis, isogenic Ba/F3 model; type: cell-based, murine
Procedure: as §1

Ba/F3 FLT3 ITD [1] = experiment: Induction of apoptosis, isogenic Ba/F3 model; type: cell-based, murine
Procedure: as §1

Ba/F3 FLT3 K663Q = experiment: Induction of apoptosis, isogenic Ba/F3 model; type: cell-based, murine
Procedure: as §1

Ba/F3 FLT3 N841H [2] = experiment: Induction of apoptosis, isogenic Ba/F3 model; type: cell-based, murine
Procedure: as §1

Ba/F3 FLT3 WT = experiment: Induction of apoptosis, isogenic Ba/F3 model; type: cell-based, murine
Procedure: as §1

Ba/F3 KIT D816F = experiment: Induction of apoptosis, isogenic Ba/F3 model; type: cell-based, murine
Procedure: as §1

Ba/F3 KIT D816V [3] = experiment: Induction of apoptosis, isogenic Ba/F3 model; type: cell-based, murine
Procedure: as §1

Ba/F3 KIT D816Y [4] = experiment: Induction of apoptosis, isogenic Ba/F3 model; type: cell-based, murine
Procedure: as §1

Ba/F3 Parental (w/ IL3) [5] = experiment: Induction of apoptosis, isogenic Ba/F3 model; type: cell-based, murine
Procedure: as §1

[6] = Inhibition of proliferation (XTT), isogenic Ba/F3 model; type: cell-based, murine; details: mouse, Ba/F3 parental cells (with IL3), Ba/F3 Parental (w/ IL3)
Ba/F3 Parental (w/ IL3) [7] = experiment: as above; type: cell-based, murine
Ba/F3 KIT D816V [8] = experiment: as above; type: cell-based, murine; details: Mus musculus
Ba/F3 KIT D816Y [9] = experiment: as above; type: cell-based, murine; details: Mus musculus
Ba/F3 FLT3 ITD [10] = experiment: as above; type: cell-based, murine; details: Mus musculus
Ba/F3 FLT3 N841H [11] = experiment: as above; type: cell-based, murine; details: Mus musculus
[12] = tested on: native mononuclear cells derived from bone marrow donors; experiment: Annexin V/PI apoptosis assay, donor mononuclear cells ex vivo; type: cell-based, human; details: Homo sapiens
Procedure: However, this observation will need prospective verification on a larger patient cohort.
as §1

[13] = tested on: native leukemia cells (AML patient samples); experiment: XTT-based proliferation assay, native leukemia cells ex vivo
[14] = tested on: mononuclear cells of a bone marrow donor; experiment: XTT-based proliferation assay, donor mononuclear cells ex vivo
Procedure: Bone marrow aspirate and peripheral blood samples from consented patients with acute leukemia as well as samples from healthy blood and bone marrow donors were collected in 5000 U heparin with the approval of the ethics committee of the Medical Faculties of the University of Tübingen or the University of Ulm. Mononuclear cells were isolated by Ficoll-Hypaque density gradient fractionation. Cells were cultured in DMEM medium, supplemented with 20% fetal bovine serum (GIBCO/Invitrogen, Darmstadt, Germany or Biochrom AG, Berlin, Germany), 1% penicillin G (10,000 units/mL), and streptomycin (10,000 μg/mg) and 2 mmol/L L-glutamine.

[15] = Mus musculus, BaF3, not reached = > 5 000 nM
[16] = 10 nM, read-out: Inhibition of proliferation At 10 nM (% alive)
[17] = 100 nM, read-out: Inhibition of proliferation At 100 nM (% alive)
[18] = BaF3, 10 nM, read-out: Inhibition of proliferation At 10 nM (% alive)
[19] = BaF3, 100 nM, read-out: Inhibition of proliferation At 100 nM (% alive)

With `COc1ccc(-c2ccc3ncc4c(c3c2)n(-c2ccc(N3CCNCC3)c(C(F)(F)F)c2)c(=O)n4C)cn1` [NVP-BGT226] the IC50 (MOLM14 cells (FLT3 ITD)) was 638 nM, the sub-G1 (MOLM14 cells) was 50% and the sub-G1 (K562 cells) was 41%. The “Induction of apoptosis At 1000 nM (% apopt.)” value (Ba/F3 FLT3 S451F; 1000 nM) was 93%, the “Induction of apoptosis At 5000 nM (% apopt.)” value (Ba/F3 FLT3 S451F; 5000 nM) was 99% and the IC50 (Ba/F3 FLT3 S451F; Mus musculus, BaF3) was 125 nM. For the same compound, the “Induction of apoptosis At 1000 nM (% apopt.)” value (Ba/F3 KIT WT; 1000 nM) was 48%, the “Induction of apoptosis At 5000 nM (% apopt.)” value (Ba/F3 KIT WT; 5000 nM) was 97% and the IC50 (Ba/F3 KIT WT; Mus musculus, BaF3) was 463 nM. The “Induction of apoptosis At 1000 nM (% apopt.)” value (Ba/F3 BCR/ABL1; 1000 nM) was 56%, the “Induction of apoptosis At 5000 nM (% apopt.)” value (Ba/F3 BCR/ABL1; 5000 nM) was 97% and the IC50 (Ba/F3 BCR/ABL1; [15]) was 262 nM. The “Induction of apoptosis At 1000 nM (% apopt.)” value (Ba/F3 FLT3 D835Y; 1000 nM) was 33%, the “Induction of apoptosis At 5000 nM (% apopt.)” value (Ba/F3 FLT3 D835Y; 5000 nM) was 98% and the IC50 (Ba/F3 FLT3 D835Y; [15]) was 1070 nM. The “Induction of apoptosis At 1000 nM (% apopt.)” value (Ba/F3 FLT3 ITD [1]; 1000 nM) was 38%, the “Induction of apoptosis At 5000 nM (% apopt.)” value (Ba/F3 FLT3 ITD [1]; 5000 nM) was 98% and the IC50 (Ba/F3 FLT3 ITD [1]; Mus musculus, not reached = > 5 000 nM) was 1080 nM. For the same compound, the “Induction of apoptosis At 1000 nM (% apopt.)” value (Ba/F3 FLT3 K663Q; 1000 nM) was 26%, the “Induction of apoptosis At 5000 nM (% apopt.)” value (Ba/F3 FLT3 K663Q; 5000 nM) was 98% and the IC50 (Ba/F3 FLT3 K663Q; [15]) was 1110 nM. The “Induction of apoptosis At 1000 nM (% apopt.)” value (Ba/F3 FLT3 N841H [2]; 1000 nM) was 18%, the “Induction of apoptosis At 5000 nM (% apopt.)” value (Ba/F3 FLT3 N841H [2]; 5000 nM) was 99% and the IC50 (Ba/F3 FLT3 N841H [2]; [15]) was 1210 nM. For the same compound, the “Induction of apoptosis At 1000 nM (% apopt.)” value (Ba/F3 FLT3 WT; 1000 nM) was 41%, the “Induction of apoptosis At 5000 nM (% apopt.)” value (Ba/F3 FLT3 WT; 5000 nM) was 99% and the IC50 (Ba/F3 FLT3 WT; Mus musculus, BaF3) was 345 nM. The “Induction of apoptosis At 1000 nM (% apopt.)” value (Ba/F3 KIT D816F; 1000 nM) was 87%, the “Induction of apoptosis At 5000 nM (% apopt.)” value (Ba/F3 KIT D816F; 5000 nM) was 89% and the IC50 (Ba/F3 KIT D816F; Mus musculus, BaF3) was 258 nM. The “Induction of apoptosis At 1000 nM (% apopt.)” value (Ba/F3 KIT D816V [3]; 1000 nM) was 7%, the “Induction of apoptosis At 5000 nM (% apopt.)” value (Ba/F3 KIT D816V [3]; 5000 nM) was 99% and the IC50 (Ba/F3 KIT D816V [3]; [15]) was 1790 nM. The “Induction of apoptosis At 1000 nM (% apopt.)” value (Ba/F3 KIT D816Y [4]; 1000 nM) was 89%, the “Induction of apoptosis At 5000 nM (% apopt.)” value (Ba/F3 KIT D816Y [4]; 5000 nM) was 96% and the IC50 (Ba/F3 KIT D816Y [4]; Mus musculus, BaF3) was 118 nM. For the same compound, the “Induction of apoptosis At 1000 nM (% apopt.)” value (Ba/F3 Parental (w/ IL3) [5]; 1000 nM) was 7%, the “Induction of apoptosis At 5000 nM (% apopt.)” value (Ba/F3 Parental (w/ IL3) [5]; 5000 nM) was 99% and the IC50 (Ba/F3 Parental (w/ IL3) [5]; [15]) was 1820 nM. For the same compound, the viability at 0.01 µM [6, 16] was 100%, the viability at 0.1 µM [6, 17] was 86% and the IC50 (Ba/F3 Parental (w/ IL3) [7]; Ba/F3 Parental (w/ IL3)) was 828 nM. It also gave an IC50 (Ba/F3 Parental (w/ IL3) [7]; Mus musculus, BaF3, Ba/F3 Parental (w/ IL3)) of roughly 800 nM, an IC50 (Ba/F3 KIT D816V [8]; BaF3) of 153 nM and a viability at 0.01 µM (Ba/F3 KIT D816V [8]; [18]) of 110%. For the same compound, the viability at 0.1 µM (Ba/F3 KIT D816V [8]; [19]) was 47%, the IC50 (Ba/F3 KIT D816Y [9]; BaF3) was 65 nM and the viability at 0.01 µM (Ba/F3 KIT D816Y [9]; [18]) was 112%. For the same compound, the viability at 0.1 µM (Ba/F3 KIT D816Y [9]; [19]) was 26%, the viability at 0.01 µM (Ba/F3 FLT3 ITD [10]; [16]) was 4% and the viability at 0.1 µM (Ba/F3 FLT3 ITD [10]; [17]) was 9%. It also gave an IC50 (Ba/F3 FLT3 N841H [11]; BaF3) of 89 nM, a viability at 0.01 µM (Ba/F3 FLT3 N841H [11]; [18]) of 110% and a viability at 0.1 µM (Ba/F3 FLT3 N841H [11]; [19]) of 38%. It also gave an IC50 ([12]; Pt. Nr. 538 (donor)) of 1780 nM, an IC50 ([12]; Pt. Nr. 554 (donor)) of 3810 nM and an IC50 ([13]; Homo sapiens, read-out: Proliferation IC50, Pt. Nr. 303, AML negative for FLT3 or KIT mutations, ex vivo) greater than 5000 nM. The IC50 ([13]; Homo sapiens, read-out: Proliferation IC50, Pt. Nr. 556, FLT3 mutant-TKD2 positive AML, ex vivo) was 32 nM, the “Proliferation IC50” value ([13]; Pt. Nr. 556, FLT3 mutant-TKD2 positive AML, ex vivo) was “low nanomolar range” and the IC50 ([13]; read-out: Proliferation IC50, Pt. Nr. 303, AML negative for FLT3 or KIT mutations, ex vivo, listed as BFT226) was 5590 nM. The IC50 ([14]; Homo sapiens, read-out: Proliferation IC50, Pt. Nr. 552 (donor), bone marrow donor, ex vivo) was greater than 1000 nM and the IC50 ([14]; read-out: Proliferation IC50, Pt. Nr. 552 (donor), bone marrow donor, ex vivo, listed as BFT226) was 1080 nM.
